Assay results published in patent US5401754A, “Agent for treating thrombosis and phosphodiesterase inhibitor” (Otsuka Pharmaceutical Company, Limited, priority 1991, dated 1995).

Columns and labels:
[1] = system: platelet aggregation (platelet rich plasma); test: Platelet aggregation inhibitory activity, ADP-induced (Pharmacological test 1); assay type: cell-based, human beings; conditions: Homo sapiens, ADP (14 to 16 μM), read-out: Platelet aggregation inhibitory rate (%); for inhibition at 100 µM: Conc. 10^-4 mol; for inhibition at 10 µM: Conc. 10^-5 mol; for inhibition at 1 µM: Conc. 10^-6 mol
Method: (§1) The platelet aggregation inhibitory activity of test compounds was measured in accordance with the method of Born et al. [J. Physiol., London, 162, 67, (1962)] using a platelet aggregator [Platelet Aggregation Tracer manufactured by Niko Biosceince K.K.].
(§2) To 9 volumes of blood taken from human beings was added 1 volume of 3.8% citric acid and this sample was centrifuged at 1100 rpm for 10 minutes to give a platelet rich plasma (PRP). The remaining sample was further centrifuged at 3000 rpm for 15 minutes to give a platelet poor plasma (PPP).
(§3) The platelets in the PRP obtained above was counted using Coulter Counter, Coulter electronics inc. and diluted to 300000 platelets/μl with the PPP to prepare a PRP solution.
(§4) A cell for measurement of aggregation was charged with a solution containing a fixed concentration of test compounds (1 to 2 μl) and the PRP solution prepared above (200 μl) and warmed at 37° C. for 1 minute. Then, to the cell was added a suspension of adenosine diphosphate (ADP, manufactured by Sigma) or collagen (Collagen Reagent Horm, manufactured by Hormon-Chemie) to induce platelet aggregation and the transparency of the cell was measured and a platelet aggregation curve was prepared. The final concentration of the above ADP and the collagen was adjusted to 14 to 16 μM and 1 to 4 μg/ml, respectively.
(§5) Maximum Aggregation Rate (MAR) of platelets was calculated from the platelet aggregation curve by the following formula: […]
(§6) wherein (a) represents the transparency of PRP measured in the similar test, (b) represents the transparency of the PRP solution containing the test compound and the aggregation inducer at the time of maximum change in the above test, and (c) represents the transparency of the PPP solution measured in the similar test.
(§7) MAR for control with no addition of the test compound was also calculated, and based on this value, the platelet aggregation inhibitory rate (%) of each test compound at various concentrations in the above test was calculated from the following formula:
(§8) Inhibitory rate=[1-(MAR of PRP with addition of test compound)/(MAR of PRP
(§9) with no addition of test compound)]×100

[2] = system: platelet aggregation (platelet rich plasma); test: Platelet aggregation inhibitory activity, collagen-induced (Pharmacological test 1); assay type: cell-based, human beings; conditions: Homo sapiens, Collagen (1 to 4 μg/ml), read-out: Platelet aggregation inhibitory rate (%); for inhibition at 100 µM: Conc. 10^-4 mol; for inhibition at 10 µM: Conc. 10^-5 mol; for inhibition at 1 µM: Conc. 10^-6 mol
Method: as §1, §2, §3, §4, §5, §6, §7, §8, §9

C-AMP phosphodiesterase = C-AMP phosphodiesterase inhibitory activity (Pharmacological test 2); assay type: biochemical, dog; conditions: C-AMP 0.4 μmol
[3] = system: aggregates of platelet (platelet rich plasma); test: Platelet aggregate dissociation, collagen-induced aggregates (Pharmacological Test 4); assay type: cell-based, human beings; conditions: Homo sapiens, 5 min, after 5 minutes, read-out: Platelet aggregate dissociation rate (%)
Method: as §2, §3
(§10) In the same manner as in the above test 1, the obtained PRP solution (200 μl ) was put in cell for measurement of aggregation and the cell was warmed at 37° C. for 1 minute. Thereto was added ADP or collagen suspension (final concentration of 14 to 16 μM and 1 to 4 μg/ml, respectively) without addition of the test compound to form aggregates of platelet. MAR was determined after stable transparency was obtained. This MAR was referred to as "MAR-1". Then, the test compound was added and MAR was determined from the transparency after 5 minutes. This MAR was referred to as "MAR-2".
(§11) Platelet aggregate dissociation rate (%) was calculated in accordance with the following formula: […]
(§12) Platelet aggregate dissociation rate
(§13) (%)=[(MAR-1)-(MAR-2)]/(MAR-1)×100

Brain blood flow = test: Topical blood flow in the brain, colored microspheres, anesthetized dog (Pharmacological Test 3); assay type: in vivo, hybrid dog
[4] = system: aggregates of platelet (platelet rich plasma); test: Platelet aggregate dissociation, ADP-induced aggregates (Pharmacological Test 4); assay type: cell-based, human beings; conditions: Homo sapiens, 5 min, after 5 minutes, read-out: Platelet aggregate dissociation rate (%)
Method: as §2, §3, §10, §11, §12, §13

Cerebellum blood flow = test: Topical blood flow in the cerebellum, colored microspheres, anesthetized dog (Pharmacological Test 3); assay type: in vivo, hybrid dog
[5] = 3 μg/kg/min i.v. over 30 minutes
[6] = 10 μg/kg/min i.v. over 30 minutes

SMILES	Phosphodiesterase inhibitory rate (%) (C-AMP phosphodiesterase; Conc. 10^-4 mol)	Phosphodiesterase inhibitory rate (%) (C-AMP phosphodiesterase; Conc. 10^-5 mol)	inhibition at 100 µM [1] [%]	inhibition at 10 µM [1] [%]	inhibition at 1 µM [1] [%]	inhibition at 100 µM [2] [%]	inhibition at 10 µM [2] [%]	inhibition at 1 µM [2] [%]	inhibition at 10 µM ([3]; Conc. 10 μmol) [%]	inhibition at 30 µM ([3]; Conc. 30 μmol) [%]	inhibition at 100 µM ([3]; Conc. 100 μmol) [%]	Increasing rate of blood flow (%) (Brain blood flow; [5])	Increasing rate of blood flow (%) (Brain blood flow; [6])	inhibition at 10 µM ([4]; Conc. 10 μmol) [%]	inhibition at 30 µM ([4]; Conc. 30 μmol) [%]	inhibition at 100 µM ([4]; Conc. 100 μmol) [%]	Increasing rate of blood flow (%) (Cerebellum blood flow; [5])	Increasing rate of blood flow (%) (Cerebellum blood flow; [6])
O=c1ccc2cc(OCC(O)CNCc3cccc(Cl)c3)ccc2[nH]1 (stereo not shown) [compound 8]			62	27.4	5.1	93.1	27.7	12.3										
CN(Cc1ccccn1)CC(O)COc1ccc2[nH]c(=O)ccc2c1 (stereo not shown) [compound 4]			77.5	30.5	13.5	97.2	64.3											
CN(Cc1ccccc1)CC(O)COc1ccc2[nH]c(=O)ccc2c1 (stereo not shown) [compound 1]			79	31.7	14.9	96.3	70.7	3.8										
CN(CCN(C)c1ccccc1)CC(O)COc1ccc2[nH]c(=O)ccc2c1 (stereo not shown) [compound 5]			84.8	38.4	21.6	96.5	72.9	44.4										
COc1ccc(CNCC(O)COc2ccc3[nH]c(=O)ccc3c2)cc1 (stereo not shown) [compound 6]			77.5	43.8	7.4	97	96.7	17										

The next lines start with results.

Phosphodiesterase inhibitory rate (%) (C-AMP phosphodiesterase; Conc. 10^-4 mol)	Phosphodiesterase inhibitory rate (%) (C-AMP phosphodiesterase; Conc. 10^-5 mol)	SMILES	inhibition at 100 µM [1] [%]	inhibition at 10 µM [1] [%]	inhibition at 1 µM [1] [%]	inhibition at 100 µM [2] [%]	inhibition at 10 µM [2] [%]	inhibition at 1 µM [2] [%]	inhibition at 10 µM ([3]; Conc. 10 μmol) [%]	inhibition at 30 µM ([3]; Conc. 30 μmol) [%]	inhibition at 100 µM ([3]; Conc. 100 μmol) [%]	Increasing rate of blood flow (%) (Brain blood flow; [5])	Increasing rate of blood flow (%) (Brain blood flow; [6])	inhibition at 10 µM ([4]; Conc. 10 μmol) [%]	inhibition at 30 µM ([4]; Conc. 30 μmol) [%]	inhibition at 100 µM ([4]; Conc. 100 μmol) [%]	Increasing rate of blood flow (%) (Cerebellum blood flow; [5])	Increasing rate of blood flow (%) (Cerebellum blood flow; [6])
2.32	48.63	COc1cccc(CNCC(O)COc2ccc3[nH]c(=O)ccc3c2)c1 (stereo not shown) [compound 2]	89.1	43.9	14.9	97.2	95.7	23.1										
15.27	72.39	COc1ccc(CNCC(O)COc2ccc3[nH]c(=O)ccc3c2)cc1OC (stereo not shown) [compound 7]	96.4	39	9.5	96.9	91.6	4.1	13.3	26.7	28	25.9 ± 7.0	57.8 ± 10.9	41.5	43.3	71.7	15.2 ± 11.5	29.7 ± 11.5
23.90	74.63	O=c1ccc2cc(OCC(O)CN(CCO)Cc3ccc(F)cc3)ccc2[nH]1 (stereo not shown) [compound 10]																
32.46	86.11	O=c1ccc2cc(OCC(O)CNCc3ccc(Cl)cc3)ccc2[nH]1 (stereo not shown) [compound 3]	78.2	44.5	13.2	97.8	96.7	17										
50.63	89.07	CCOc1ccc(CNCC(O)COc2ccc3[nH]c(=O)ccc3c2)cc1OCC (stereo not shown) [compound 9]																
